Assay results from patent publication US20020076722A1, “Antibiotic hypersusceptibility mutations in bacteria” (priority 2000, published 2002).

Key:
[1] = tested on: Acinetobacter library cells; assay: Inhibition of growth of Acinetobacter library cells by ampicillin in liquid culture; type: cell-based, Acinetobacter sp. strain BD413
Procedure: Clones hypersusceptible to the β-lactam drug ampicillin, an antibiotic that is well known to cause bacterial lysis, were selected. As compared to E. coli, Acinetobacter is remarkably resistant to ampicillin.
To purify the DNA released, bacterial cells from the insertional library of Acinetobacter were diluted in LB medium to OD600 0.025 and allowed to grow at 37° C. to OD600 0.1. Ampicillin was added to 5 ml aliquots of the culture at a variety of concentrations. After two hours, the cells were removed by centrifugation. DNA released into the medium in response to incubation with ampicillin was purified using a variation of the Wizard DNA purification protocols of Promega. Specifically, three grams of guanidine-HCl was dissolved in 5 ml of the culture medium and 1 ml of the slurry of DNA-binding silica resin (Promega Wizard DNA purification resin) was added. After a 5 min incubation with shaking, the resin was collected in a mini-column by passing the slurry through it with a syringe. […]
Cells of a frozen insertional library of Acinetobacter were diluted in LB medium to OD600 0.025 and allowed to grow at 37° C. to OD600 0.1, at which point ampicillin was added to 5 ml aliquots of the culture at the indicated concentrations. Two hours later the density of the cultures was measured, cells were removed by centrifugation and the DNA released into the medium was purified. […]

[2] = tested on: Acinetobacter library cells and SDR-selected clones; assay: Growth of clones replica-plated on LB-agar plates with different concentrations of ampicillin; type: cell-based, Acinetobacter sp.
Procedure: Each individual clone was inoculated into a well of a 96-well plate. When the cultures reached the density of approx. OD600 0.2-0.5, they were transferred by using a 6×8-pin replicator onto LB-agar plates containing kanamycin (25 μg/ml) and different concentrations of ampicillin. Plates were digitally scanned after 24 hr of incubation at 37° C. (FIG. 3). The spots indicated as Library are identical cultures from the original library and serve here as controls.
The computer scans of different plates were combined in a single set. This study has been conducted essentially as described in Example 2.

LIT1 strain = assay: Release of DNA and growth of the LIT1 lysis reporter strain with translational inhibitors; type: cell-based, Acinetobacter; conditions: LIT1 clone; for DNA released in presence of antibiotic versus absence, normalized per ml of culture: 2 h (chloramphenicol) or 1.5 h (erythromycin, tetracycline)
Procedure: The LIT1 cells were inoculated in LB at OD600 0.05 and grown at 37° C. to OD600 0.2 at which time antibiotics were added at indicated concentrations. Two (chloramphenicol) or 1.5 (erythromycin and tetracycline) hours later the OD600 of the cultures were measured, cells were spun down and the released DNA was purified as described above. The amounts of DNA in μg normalized per milliliter of culture was determined fluorimetrically by adding an aliquot of the isolated DNA to the solution of ethidium bromide (0.5 μg/ml) and measuring the fluorescence at λex 540 and λem 580 nm (FIG. 7). The values obtained were compared with the calibration curve for known amounts of DNA.

[3] = tested on: alkM model strain (lysis cassette under alkM promoter); assay: Induction of DNA release by hexadecane in the alkM model strain; type: cell-based, Acinetobacter
Procedure: (§1) FIG. 6—Gene organization in the alkM model strain and induction of DNA release before and after SDR selection. Transformants 1 and 2 and the derivative of the transformant 1 after four cycles of SDR selection were grown to OD600 0.3 and a drop of hexadecane was added to 5 ml of the culture. After overnight incubation (induction of the alkM expression occurs only in stationary phase (Ratajczak et al., J. Bacteriol. 180(22):5822-7, 1998)) the released DNA was purified from the medium as described in the text.
(§2) A model strain of Acinetobacter with the lysis cassette of λ inserted under the control of a antibiotic-inducible promoter was constructed and determined to release DNA in response to the antibiotic inducer. A promoter of the alkM gene of Acinetobacter, which encodes an enzyme involved in degradation of hydrocarbons and whose expression is activated dramatically by hexadecane, was chosen (Ratajczak et al., 1998). The promoter-less lysis cassette was PCR-amplified from the DNA of λ. The 5′-end of the gene of S-protein, which is the limiting factor in lysis (Young, 1992), was modified by an appropriately designed PCR primer. In particular, the alternative start codon from which an inhibitory variant of S is translated has been eliminated by mutation. […]

wild-type Acinetobacter = assay: DNA release by hexadecane in wild-type Acinetobacter; type: cell-based
Procedure: as §1, §2

E. Coli = conditions: bulgecin as known inhibitor of Slt; cited from earlier work

## CC1(C)S[C@@H]2[C@H](NC(=O)[C@H](N)c3ccccc3)C(=O)N2[C@H]1C(=O)O [ampicillin]
[1]; 1, 3 and 9 μg/ml ampicillin, little lysis
  growth inhibition at the concentrations used for SDR selection: only moderate growth inhibition
[1]; liquid culture, LB, 37° C., two hours
  ampicillin concentration at which slow growth was still observed: 729 µg/mL
[2]; original library cells, LB-agar, 24 hr
  ampicillin concentration on plates at which library cells were still growing: 32 µg/mL
[2]; seventeen of 30 tested clones selected with 3 μg/ml of ampicillin
  ampicillin concentration at which clones could not grow: 1 µg/mL

## O=C(N[C@H](CO)[C@H](O)c1ccc([N+](=O)[O-])cc1)C(Cl)Cl [chloramphenicol]
LIT1 strain
  increase of released DNA normalized per number of cells: approximately ten-fold
  DNA released in presence of antibiotic versus absence, normalized per ml of culture: four times more

## CCCCCCCCCCCCCCCC [hexadecane]
[3]; model strain before SDR selection
  effect on optical density of the culture: did not cause significant reduction
[3]; transformants, drop of hexadecane in 5 ml culture, overnight
  effect on amount of DNA released: significant increase
wild-type Acinetobacter
  effect on release of DNA: no effect

## bulgecin
E. Coli
  effect on sensitivity to the β-lactam antibiotic cefoxitin: increase the sensitivity

## CN(C)[C@@H]1C(O)=C(C(N)=O)C(=O)[C@@]2(O)C(O)=C3C(=O)c4c(O)cccc4[C@@](C)(O)[C@H]3C[C@@H]12 [tetracycline]
LIT1 strain
  increase of released DNA normalized per number of cells: ~35 fold

## CC[C@H]1OC(=O)[C@H](C)[C@@H](O[C@H]2C[C@@](C)(OC)[C@@H](O)[C@H](C)O2)[C@H](C)[C@@H](O[C@@H]2O[C@H](C)C[C@H](N(C)C)[C@H]2O)[C@](C)(O)C[C@@H](C)C(=O)[C@H](C)[C@@H](O)[C@]1(C)O [erythromycin]
LIT1 strain
  increase of released DNA normalized per number of cells: approximately ten-fold
  DNA released in presence of antibiotic versus absence, normalized per ml of culture: four-fold
